According to patent US20050215635A1, “Diarylheptanoid compounds and uses thereof” (priority 2004, published 2005):

Assays:
[1] = test system: LPS induced NO production from mouse macrophage cells (RAW 264.7); test: Nitric oxide measurement (nitrite, Griess reagent) in LPS-treated RAW 264.7 cells; format: cell-based; settings: RAW 264.7, 24 hrs
Experimental: The mouse macrophage cells (RAW 264.7) were cultured in DMEM supplemented with 15% fetal bovine serum (FBS) and antibiotic and antimycotic mixture. The cell suspension of 50,000 cells/well was cultured in flat bottom microtitre plate in quadruplicate for 12 hrs. Thereafter, 100 μl of media was replaced with fresh medium containing either LPS (0.5 μg/ml) alone or LPS with various concentrations of HMP and further cultured for 24 hrs. The culture supernatant was collected at the end of culture for nitrite assay, which was used as a measure of NO production. Culture supernatant (100 μl) was mixed with equal volume of Griess reagent (SIGMA, MO, USA) and the absorbance was measured at 570 nm. The concentration of nitrite (μM) was calculated from standard curve drawn with known concentration of sodium nitrite dissolved in DMEM. The results are presented as mean ±SD of 4 replicates of one representative experiment and this experiment was repeated 5 times. For the NO assay, RAW 264.7 cells were treated with LPS (0.5 μg/ml) and/or various concentrations of HMP for 24 hrs and amount of nitrite in supernatant from each treatment group was measured using Griess reagent. Each data point represents mean+standard deviation (SD) of 5 replicates of one representative experiment of total 6 experiments.

[2] = test system: NF-κB DNA binding activity; test: Electrophoresis mobility shift assay (EMSA) of NF-κB DNA binding in RAW 264.7 nuclear extracts; format: cell-based, mouse; settings: RAW 264.7, 2 hrs
Experimental: FIG. 6A and 6B. Inhibition of LPS induced NF-κB activation by HMP. 6A: Nuclear protein lysates of RAW 264.7 cells were prepared after 2 hrs of treatment with LPS (0.5 μg/ml) either alone or with different concentration of HMP. Six μg of nuclear protein was used in DNA binding assay and the total binding reaction was resolved in 5% nondenaturing polyacrylamide gel. The retarded bands are indicated with arrow. Data represent one of three experiments performed separately with similar results. Lane 1, control; 2, LPS (0.5 μg/ml); 3, LPS+HMP (25 μM); 4, HMP (12.5 μM). NS, non specific. 6B: Plot of integrated signal density for each lane in FIG. 6A.
RAW 264.7 cells were treated with either LPS (0.5 μg/ml) alone or with various concentration of HMP for 2 hrs. Thereafter, nuclear extracts were prepared using a modified method (Lahti et al., 2000 294:1188-1194). Briefly, cells were washed once with PBS (pH 7.2) and were suspended in hypotonic buffer A [10 mM HEPES (pH 7.6), 10 mM KCl, 0.1 mM EDTA, 1 mM DTT, 0.5 mM PMSF] for 10 min on ice, and vortexed for 10 sec. Nuclei were pelleted by centrifugation at 12,000 g for 5 minutes. […] Mobility shift of DNA due to binding of NF-κB complex was detected by Phosphor Imager-445 SI (Molecular Dynamics, Amarsham-Pharmacia, NJ, USA).

Compound: COc1cc(CC/C=C/C(=O)CCc2ccccc2)ccc1O [AO-4, 7-(4″-hydroxy-3″-methoxyphenyl)-1-phenyl-hept-4-en-3-one]
- Nitrite ([1]; HMP 6.25 μM + LPS (0.5 μg/ml)): 14.54 ± 2.5 µM
- Nitrite ([1]; HMP 6.25 μM alone): 3.66 ± 1.08 µM
- Nitrite ([1]; HMP 12.5 μM + LPS (0.5 μg/ml)): 13.75 ± 2.65 µM
- Nitrite ([1]; HMP 12.5 μM alone): 3.88 ± 1.14 µM
- Nitrite ([1]; HMP 25 μM + LPS (0.5 μg/ml)): 9.95 ± 1.41 µM
- Nitrite ([1]; HMP 25 μM alone): 3.86 ± 0.97 µM
- LPS induced production of nitric oxide (in words) ([1]; HMP 6.25-25 μM + LPS (0.5 μg/ml)): significantly inhibited by HMP in a dose dependent manner
- NO production, HMP alone (in words) ([1]; HMP alone): no effect on NO production
- LPS induced NF-κB DNA binding activity (EMSA, in words) ([2]; HMP 25 μM + LPS (0.5 μg/ml)): marked inhibition
- relative levels of NF-κB DNA binding activity (EMSA, in words) ([2]; HMP 12.5 and 25 μM + LPS (0.5 μg/ml)): less in comparison to LPS alone
